Test results: patent EP4722213A1, “NITROGEN-CONTAINING FUNCTIONAL GROUP-SUBSTITUTED PYRIDAZINOPYRIDONE DERIVATIVE AND USE THEREOF” (Sichuan Huiyu Pharmaceutical Co., Ltd., priority 2023, dated 2024)
Where a name gives a salt, the structure may show the parent alone.

These molecules were tested against T1, SOS1 (Homo sapiens, UniProt Q07889) (assay: biochemical).
T1 sequence (Q07889 1-1333): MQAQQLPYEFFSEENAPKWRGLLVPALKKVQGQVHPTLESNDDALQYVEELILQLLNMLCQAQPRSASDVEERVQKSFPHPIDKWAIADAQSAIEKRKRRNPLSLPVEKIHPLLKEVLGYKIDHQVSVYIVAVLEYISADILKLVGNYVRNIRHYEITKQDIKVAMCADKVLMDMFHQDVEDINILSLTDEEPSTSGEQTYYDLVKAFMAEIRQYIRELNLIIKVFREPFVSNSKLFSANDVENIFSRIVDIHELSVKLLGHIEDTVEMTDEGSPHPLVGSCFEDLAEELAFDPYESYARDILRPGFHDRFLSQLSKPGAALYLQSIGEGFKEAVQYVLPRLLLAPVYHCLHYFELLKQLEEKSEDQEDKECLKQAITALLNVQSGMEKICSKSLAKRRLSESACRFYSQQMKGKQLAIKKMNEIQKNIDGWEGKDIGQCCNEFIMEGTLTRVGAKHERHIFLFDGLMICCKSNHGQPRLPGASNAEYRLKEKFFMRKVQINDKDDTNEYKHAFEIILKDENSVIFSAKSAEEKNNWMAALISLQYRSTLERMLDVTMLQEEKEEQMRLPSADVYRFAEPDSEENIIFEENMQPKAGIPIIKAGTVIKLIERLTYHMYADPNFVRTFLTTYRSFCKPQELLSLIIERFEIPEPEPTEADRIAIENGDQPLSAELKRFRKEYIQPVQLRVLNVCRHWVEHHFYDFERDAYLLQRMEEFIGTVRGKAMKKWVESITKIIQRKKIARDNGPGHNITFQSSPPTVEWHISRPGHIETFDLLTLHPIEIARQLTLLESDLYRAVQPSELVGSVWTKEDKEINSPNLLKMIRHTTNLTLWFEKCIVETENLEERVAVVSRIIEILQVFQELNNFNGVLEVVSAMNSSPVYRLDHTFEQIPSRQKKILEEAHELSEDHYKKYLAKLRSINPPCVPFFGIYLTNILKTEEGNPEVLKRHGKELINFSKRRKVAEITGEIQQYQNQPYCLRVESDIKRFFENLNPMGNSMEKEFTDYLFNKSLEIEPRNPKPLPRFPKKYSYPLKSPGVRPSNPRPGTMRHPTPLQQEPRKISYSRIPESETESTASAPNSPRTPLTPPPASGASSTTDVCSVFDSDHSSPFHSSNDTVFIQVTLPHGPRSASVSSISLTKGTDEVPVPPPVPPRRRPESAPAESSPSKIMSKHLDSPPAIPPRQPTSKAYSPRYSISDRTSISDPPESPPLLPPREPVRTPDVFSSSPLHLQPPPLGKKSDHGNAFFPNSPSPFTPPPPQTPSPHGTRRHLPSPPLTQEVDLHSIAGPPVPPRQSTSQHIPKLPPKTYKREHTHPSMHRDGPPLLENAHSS

SMILES | IC50 [nM]
CCn1cc2c(N[C@H](C)c3cccc(C(F)F)c3F)nnc(N3CCN(C(C)C)CC3)c2cc1=O [Example 118, (R)-4-((1-(3-(difluoromethyl)-2-fluorophenyl)ethyl)amino)-6-ethyl-1-(4-isopropylpiperazin-1-yl)pyrido[3,4-d]pyridazin-7(6H)-one] | 8.4
C[C@@H](Nc1nnc(N2CC3COCC3C2)c2cc(=O)n(C3(C)CC3)cc12)c1cccc(C(F)F)c1F (stereo partly drawn) [Example 205, 4-(((R)-1-(3-(difluoromethyl)-2-fluorophenyl)ethyl)amino)-6-(1-methylcyclopropyl)-1-(tetrahydro-1H-furo[3,4-c]pyrrol-5(3H)-yl)pyrido[3,4-d]pyridazin-7(6H)-one] | 4.1
CC(C)N1CCN(c2nnc(N[C@H](C)c3cccc(C(F)(F)F)c3)c3cn(C4(C)CC4)c(=O)cc23)CC1 [Example 155, (R)-1-(4-isopropylpiperazin-1-yl)-6-(1-methylcyclopropyl)-4-((1-(3-(trifluoromethyl)phenyl)ethyl)amino)pyr ido[3,4-d]pyridazin-7(6H)-one formate] | 5.6
C[C@@H](Nc1nnc(N2CCN(C)CC2)c2cc(=O)n(C3(C)CC3)cc12)c1cccc2c1CCC2(F)F [Example 208, (R)-4-((1-(1,1-difluoro-2,3-dihydro-1H-inden-4-yl)ethyl)amino)-6-(1-methylcyclopropyl)-1-(4-methylpiperazin-1-yl)pyrido[3,4-d]pyridazin-7(6H)-one] | 4.5
Cc1c([C@@H](C)Nc2nnc(N3CCN(C4CC4)CC3)c3cc(=O)n(C4(C)CC4)cc23)cccc1C(F)(F)F [Example 92, (R)-1-(4-cyclopropylpiperazin-1-yl)-4-((1-(2-methyl-3-(trifluoromethyl)phenyl)ethyl)amino)-6-(1-methylcyclopropyl) pyrido[3,4-d]pyridazin-7(6H)-one] | 10.2
C[C@@H](Nc1nnc(NN2CCN(C)CC2)c2cc(=O)n(C3(C)CC3)cc12)c1cccc(C(F)(F)F)c1 [Example 159, (R)-6-(1-methylcyclopropyl)-1-((4-methylpiperazin-1-yl)amino)-4-((1-(3-(trifluoromethyl)phenyl)ethyl)amino)pyr ido[3,4-d]pyridazin-7(6H)-one formate] | 6.4
C[C@@H](Nc1nnc(N2CC(CO)C2)c2cc(=O)n(C3(C)CC3)cc12)c1cccc(C(F)F)c1F [Example 131, (R)-4-((1-(3-(difluoromethyl)-2-fluorophenyl)ethyl)amino)-1-(3-(hydroxymethyl)azetidin-1-yl)-6-(1-methylcyclopropyl) pyrido[3,4-d]pyridazin-7(6H)-one] | 4.6
C[C@@H](Nc1nnc(N2CC[C@@H](CO)C2)c2cc(=O)n(C3(C)CC3)cc12)c1cccc(C(F)(F)F)c1 [Example 178, 1-((R)-3-(hydroxymethyl)pyrrolidin-1-yl)-6-(1-methylcyclopropyl)-4-(((R)-1-(3-(trifluoromethyl)phenyl)ethyl)amino)pyr ido[3,4-d]pyridazin-7(6H)-one formate] | 6.3
CC(C)N1CCN(c2nnc(N[C@H](C)c3cccc(C(F)(F)F)c3F)c3cn(C4(C)CC4)c(=O)cc23)CC1 [Example 169, (R)-4-((1-(2-fluoro-3-(trifluoromethyl)phenyl)ethyl)amino)-1-(4-isopropylpiperazin-1-yl)-6-(1-methylcyclopropyl) pyrido[3,4-d]pyridazin-7(6H)-one] | 4.7
C[C@@H](Nc1nnc(N(C)C2CC2)c2cc(=O)n(C3(C)CC3)cc12)c1cccc(C(F)F)c1F [Example 225, (R)-1-(cyclopropyl(methyl)amino)-4-((1-(3-(difluoromethyl)-2-fluorophenyl)ethyl)amino)-6-(1-methylcyclopropyl) pyrido[3,4-d]pyridazin-7(6H)-one] | 7.6
C[C@@H](Nc1nnc(N2CCC3(CCN(C)C3)C2)c2cc(=O)n(C3(C)CC3)cc12)c1cccc(C(F)F)c1F (stereo partly drawn) [Example 183, 4-(((R)-1-(3-(difluoromethyl)-2-fluorophenyl)ethyl)amino)-1-(7-methyl-2,7-diazaspiro[4.4]nonan-2-yl)-6-(1-methylcyclopropyl) pyrido[3,4-d]pyridazin-7(6H)-one] | 4.9
C[C@@H](Nc1nnc(N2CCN(C3CC3)CC2)c2cc(=O)n(C3CC(F)(F)C3)cc12)c1cccc(C(F)F)c1F [Example 103, (R)-6-(3,3-difluorocyclobutyl)-4-((1-(3-(difluoromethyl)-2-fluorophenyl)ethyl)amino)-1-(4-cyclopropylpiperazin-1-yl)pyrido[3,4-d]pyridazin-7(6H)-one] | 5.9
C[C@@H](Nc1nnc(N(C)C)c2cc(=O)n(C3CC3)cc12)c1cccc(C(F)F)c1F [Example 76, (R)-6-cyclopropyl-4-((1-(3-(difluoromethyl)-2-fluorophenyl)ethyl)amino)-1-(dimethylamino) pyrido[3,4-d]pyridazin-7(6H)-one] | 9.2
Cc1c(C#N)cccc1[C@@H](C)Nc1nnc(N2CCN(C3CCCC3)CC2)c2cc(=O)n(C3CC3)cc12 [Example 101, (R)-3-(1-((1-(4-cyclopentylpiperazin-1-yl)-6-cyclopropyl-7-oxo-6,7-dihydropyrido[3,4-d]pyridazin-4-yl)amino)ethyl)-2-methylbenzonitrile] | 8.9
C[C@@H](Nc1nnc(N2CC3CC2CO3)c2cc(=O)n(C3(C)CC3)cc12)c1cccc(C(F)(F)F)c1F (stereo partly drawn) [Example 175, 1-(2-oxa-5-azabicyclo[2.2.1]heptan-5-yl)-4-(((R)-1-(2-fluoro-3-(trifluoromethyl)phenyl)ethyl)amino)-6-(1-methylcyclopropyl) pyrido[3,4-d]pyridazin-7(6H)-one] | 13
Cc1c([C@@H](C)Nc2nnc(N3CCSC3)c3cc(=O)n(C4CC4)cc23)cccc1C(F)(F)F [Example 57, (R)-6-cyclopropyl-4-((1-(2-methyl-3-(trifluoromethyl)phenyl)ethyl)amino)-1-(thiazolidin-3-yl)pyrido[3,4-d]pyridazin-7(6H)-one] | 25.6
C[C@@H](Nc1nnc(NN2CCOCC2)c2cc(=O)n(C3(C)CC3)cc12)c1cccc(C(F)(F)F)c1 [Example 158, (R)-6-(1-methylcyclopropyl)-1-(morpholinoamino)-4-((1-(3-(trifluoromethyl)phenyl)ethyl)amino)pyr ido[3,4-d]pyridazin-7(6H)-one formate] | 6.9
C[C@@H](Nc1nnc(N2CC[C@@H](O)C2)c2cc(=O)n(C3(C)CC3)cc12)c1cccc(C(F)F)c1F [Example 137, 4-(((R)-1-(3-(difluoromethyl)-2-fluorophenyl)ethyl)amino)-1-((R)-3-hydroxypyrrolidin-1-yl)-6-(1-methylcyclopropyl) pyrido[3,4-d]pyridazin-7(6H)-one formate] | 4.8
CNc1nnc(N[C@H](C)c2cccc(C#N)c2C)c2cn(C3(C)CC3)c(=O)cc12 [Example 83, (R)-2-methyl-3-(1-((1-(methylamino)-6-(1-methylcyclopropyl)-7-oxo-6,7-dihydropyrido[3,4-d]pyridazin-4-yl)amino)ethyl)benzonitrile] | 5.6
C[C@@H]1CCCN1c1nnc(N[C@H](C)c2cccc(C(F)F)c2F)c2cn(C3CC3)c(=O)cc12 [Example 25, 6-cyclopropyl-4-(((R)-1-(3-(difluoromethyl)-2-fluorophenyl)ethyl)amino)-1-((R)-2-methylpyrrolidin-1-yl)pyrido[3,4-d]pyridazin-7(6H)-one] | 12
Cc1c(C#N)cccc1[C@@H](C)Nc1nnc(N2CCC(F)(F)C2)c2cc(=O)n(C3CC3)cc12 [Example 42, (R)-3-(1-((6-cyclopropyl-1-(3,3-difluoropyrrolidin-1-yl)-7-oxo-6,7-dihydropyrido[3,4-d]pyridazin-4-yl)amino)ethyl)-2-methylbenzonitrile] | 51.3
C[C@@H](Nc1nnc(N2CC3CC2CO3)c2cc(=O)n(C3(C)CC3)cc12)c1cccc(C(F)F)c1F (stereo partly drawn) [Example 201, 1-(2-oxa-5-azabicyclo[2.2.1]heptan-5-yl)-4-(((R)-1-(3-(difluoromethyl)-2-fluorophenyl)ethyl)amino)-6-(1-methylcyclopropyl) pyrido[3,4-d]pyridazin-7(6H)-one] | 5.3
